Measurements as given in patent US11413267B2, “Methods and compositions for inhibition of ATR and FANCD2 activation” (priority 2012, dated 2022).

How the values were obtained:
[1] = tested on: HeLa cells; assay: DNA homologous recombination repair assay (pHPRT-DRGFP / I-SceI); assay type: cell-based, human; settings: for GFP cell (%): chromosomal breaks generated by I-SceI endonuclease expression, 48 h
Description: ATR function is also linked to DNA repair via its coupled targets (Sorensen C S, et al. Nat Cell Biol 2005). To examine the effect of benzopyran-4-one derivatives treatment on DNA repair, we performed a homologous recombination repair (HRR) assay in HeLa cells. DNA constructs of the recombination substrate pHPRT-DRGFP, in which the I-SceI site lies within 1 copy of 2 mutated tandem repeated GFP genes, and the I-SceI endonuclease expression vector pCBASceI, were originally constructed by Dr. M. Jasin (25). In brief, we generated a stable pHPRT-DRGFP construct in HeLa cells, and evaluated the chromosomal breaks generated by I-SceI endonuclease expression. Six hours after pCBASceI was delivered into the cells, complete medium with or without Protoapigenone (I-1) or compound II-1 was replaced onto the cells. Forty-eight hours after delivery, the efficiency of chromosomal HRR was obtained as the percentage of GFP-positive cells, which was assessed by flow cytometry.

[2] = tested on: synchronized cells; assay: Double-thymidine cell cycle synchronization assay (flow cytometry); assay type: cell-based; settings: for Percentage of G2/M cells compared with control group, in words: 9 hours of treatment after release
Description: ATR are involved in DNA replication. […] In the results of double-thymidine cell cycle synchronization assay, according to the Table 4 which sorted out from FIGS. 21-23, the unsynchronized cells (FIG. 21(a)) become synchronization by using this method, and 97% of cells were stopped at G1/S boundary after two cycles of thymidine blocks (FIG. 21(b)). Those synchronized cells released from thymidine blockade and allowed progress into S phase in presence or absence of protoapigenone (I-1) and compound II-1.
To evaluate the effect of DNA damage checkpoint activation on cell cycle distribution, the cells were harvested at indicated time points and fixed with methanol for at least 2 h. The DNA was then stained with a solution containing propidium iodide (PI) and RNase A (Sigma-Aldrich). Fluorescently labeled cells were subsequently analyzed by the flow cytometer (LSR II; BD Biosciences) with a suitable selection of excitation and emission wavelengths. The percentages of different fluorescent cell populations were analyzed using WinMDI Ver. 2.9 (The Scripps Research Institute).

[3] = tested on: ATR-dependent Chk1 phosphorylation; assay: Immunoblot of DNA damage-induced Chk1 phosphorylation; assay type: cell-based, human
Description: (§1) We hypothesized that genes with functions associated with DNA damage checkpoints and/or DNA repair might be targeted by benzopyran-4-one derivatives. To test this hypothesis, we assessed the effects of benzopyran-4-one derivatives on DDR induced by H2O2. […] In response to DNA double-strand breaks (DSBs), FANCD2 is known to be monoubiquitinated on K561 (FANCD2-Ub) in an ATR-dependent manner to stimulate repair (Andreassen P R, et al. Genes Dev 2004).
(§2) To elucidate the specificity of the benzopyran-4-one derivatives inhibition on ATR-mediated signaling, we compared the change between cells treated with benzopyran-4-one derivatives or the ATM-specific inhibitor KU55933 before the induction of DDR.
(§3) MDA-MB-231 (breast adenocarcinoma; ATCC HTB-26, BCRC 60425) and A549 (lung adenocarcinoma; ATCC CCL-185, BCRC 60074) human cell lines were purchased from Bioresource Collection and Research Center (BCRC, Hsinchu, Taiwan), and were authenticated by American Type Culture Collection (ATCC, Manassas, Va.). U2OS (osteosarcoma), HeLa (cervical adenocarcinoma), and HEK 293T (embryonic kidney cells) human cell lines were provided by Dr. Sheau-Yann Shieh (Institute of Molecular Biology, Academia Sinica, Taipei, Taiwan). Cells were maintained in Dulbecco's modified Eagle's medium (DMEM, Sigma-Aldrich) supplemented with 10% fetal bovine serum (FBS) (Gibco). […] For UV irradiation treatment, the cells were irradiated for 10 J/m^2 by a cross-linker (UVP) 1 h prior to analysis.
(§4) Cell lysate preparations, gel electrophoresis, and immunoblotting were performed as previously described (23). The binding of primary antibodies were detected by horseradish peroxidase-coupled secondary antibodies (Jackson ImmunoResearch) followed by enhanced chemiluminescence (ECL) (Millipore). The images of non-saturated bands were captured using a luminescent image analyzer (LAS-4000 mini; Fujifilm). The antibodies used in this study are listed in supplementary materials.

[4] = tested on: ATM-mediated Chk2 phosphorylation; assay: Immunoblot of DNA damage-induced Chk2 phosphorylation / ATM autophosphorylation; assay type: cell-based, human; settings: for UV-induced or H2O2-induced Chk2 phosphorylation: HEK293T cells with siRNAs against ATM and DNA-PKcs
Description: as §1, §2, §3, §4

[5] = tested on: DNA replication; assay: EdU incorporation assay of DNA replication; assay type: cell-based
Protocol: DNA replication was measured using a Click-it EdU assay kit, which is based on incorporation of the thymidine analogue 5-ethynyl-2'-deoxyuridine (EdU) into DNA during replication (Invitrogen). Then, 10 μM EdU was added to the cell culture medium 30 min before the cells were harvested and fixed in 4% paraformaldehyde. After cycloaddition, EdU was detected with Alexa Fluor 647 using click reaction catalyzed by Cu (II), and the DNA content was stained by CellCycle 405-blue. […] An FITC Annexin V apoptosis detection kit was used to characterize the phenotype of cell death based on PI and Annexin V double staining (BD Pharmingen, San Diego, Calif.). Fluorescence-labeled cells were subsequently analyzed by the BD LSR II flow cytometer with a suitable selection of excitation and emission wavelengths. The percentages of different fluorescent cells were analyzed using WinMDI Ver. 2.9.

[6] = tested on: tumor xenografts; settings: previous studies; cited from earlier work
[7] = 6 hrs after release from synchronization
[8] = 9 hrs after release from synchronization
[9] = A594 cells, 0.1 mM H2O2 for 2 h

| SMILES | Cell cycle G1 [2, 7] | Cell cycle G2M [2, 7] | Cell cycle S [2, 7] | Percentage of G2/M cells compared with control group, in words [2] | Cell cycle G1 [2, 8] | Cell cycle G2M [2, 8] | Cell cycle S [2, 8] | UV-induced or H2O2-induced Chk2 phosphorylation [4] | Size of tumor xenografts [6] | Toxic effects on the recipient [6] | further results |
| --- | --- | --- | --- | --- | --- | --- | --- | --- | --- | --- | --- |
| O=C1C=CC(O)(c2cc(=O)c3c(O)cc(O)cc3o2)C=C1 [Compound I-1, Protoapigenone] | 25.45% | 0.41% | 69.13% | significantly reduce | 21.41% | 16.46% | 60.89% | not altered | reduce the size of tumor xenografts | without exerting toxic effects on the recipient | GFP cell (%) ([1]; 2.0 μM): 0.807 ± 0.0403%; GFP cell (%) ([1]; 4.0 μM): 0.213 ± 0.0105%; Repair of chromosomal breaks by HRR, in words ([1]; low concentrations): dose-dependently inhibited; Reversal of inhibition of Chk1 phosphorylation by okadaic acid or MG132 pretreatment ([3]; 50 μM OA or 20 μM MG132, 10 J/m^2 UV 1 h): could not reverse; Chk1 phosphorylation [3, 9]: inhibit; Reversal of Chk1 phosphorylation inhibition by overexpression of ATR mediators ([3]; HEK293T cells overexpressing ATRIP, TopBP1, claspin or ATR, 10 J/m^2 UV, 1 h): overexpression of ATRIP or TopBP1 did not reverse the inhibitory effect of Protoapigenone (I-1) on Chk1 phosphorylation, whereas overexpression of claspin or ATR did; ATM autophosphorylation [4, 9]: not affected; Chk2 phosphorylation [4, 9]: promote; Percentage of EdU incorporation compared with control group ([5]; 4 μM): efficiently reduce |
| O=C1C=CC(O)(c2cc(=O)c3c(ccc4ccccc43)o2)C=C1 [Compound II-1, 3-(1-hydroxy-4-oxo-cyclohexa-2,5-dienyl)-1H-benzo[f]chromen-1-one] | 21.72% | 4.59% | 72.01% | significantly reduce | 15.50% | 20.45% | 63.06% | increased | reduce the size of tumor xenografts | without exerting toxic effects on the recipient | Dose lower than that of Protoapigenone (I-1) for similar HRR effects [1]: 10 fold; GFP cell (%) ([1]; 0.2 μM): 0.703 ± 0.0304%; GFP cell (%) ([1]; 0.4 μM): 0.17%; Potency in inhibiting Chk1 phosphorylation, comparison ([3]; FIGS. 6(a), 6(b)): more potent than Protoapigenone (I-1); Percentage of EdU incorporation compared with control group ([5]; 0.4 μM): efficiently reduce |
